From ChEMBL document CHEMBL1201862, “PubChem BioAssay data set” (2004)
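96-well plates; 48 h exposure; 5 concentrations. Endpoints by linear interpolation between flanking doses. Not reached: highest tested concentration assigned. GI50 = concentration required for 50% inhibition of growth.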 The source made the active and inactive calls. Cut-off read from the data, not from the text of the source: active = GI50 up to about 1.1 µM and inactive = higher.

Experiments:
Assay in all cases: NCI anticancer screen, dose series, 48 h
CCRF-CEM = tested on: CCRF-CEM
DU-145 = tested on: DU-145
HCT-15 = tested on: HCT-15
IGROV-1 = tested on: IGROV-1
LOX IMVI = tested on: LOX IMVI
M14 = tested on: M14
MCF7 = tested on: MCF7
MDA-MB-231 = tested on: MDA-MB-231
MDA-MB-435 = tested on: MDA-MB-435
NCI-H460 = tested on: NCI-H460
NCI/ADR-RES = tested on: NCI/ADR-RES
SF-268 = tested on: SF-268
SR = tested on: SR
DLD-1 = tested on: DLD-1
DMS-114 = tested on: DMS-114
LXFL 529 = tested on: LXFL 529
M19-MEL = tested on: M19-MEL
SNB-78 = tested on: SNB-78
XF498 = tested on: XF498
HOP-18 = tested on: HOP-18

Compound	GI50 (CCRF-CEM)	GI50 (DU-145)	GI50 (HCT-15) [µM]	GI50 (IGROV-1)	GI50 (LOX IMVI)	GI50 (M14)	GI50 (MCF7)	GI50 (MDA-MB-231)	GI50 (MDA-MB-435)	GI50 (NCI-H460)	GI50 (NCI/ADR-RES)	GI50 (SF-268)	GI50 (SR)	GI50 (DLD-1)	GI50 (DMS-114)	GI50 (LXFL 529)	GI50 (M19-MEL)	GI50 (SNB-78)	GI50 (XF498)	GI50 (HOP-18)
O=[N+]([O-])C(/C=C(\Cl)[N+](=O)[O-])=C1Nc2ccccc2N1	34.8 µM (inactive)	> 100 µM (inactive)	59.4	64.7 µM (inactive)	34.8 µM (inactive)	60.8 µM (inactive)	39.6 µM (inactive)	36.7 µM (inactive)	42.6 µM (inactive)	> 100 µM (inactive)	> 100 µM (inactive)	57.1 µM (inactive)	29.6 µM (inactive)	–	–	–	–	–	–	–
COc1c(Cl)cc(Cl)cc1S(=O)O	> 100 µM (inactive)	–	–	–	> 100 µM (inactive)	> 100 µM (inactive)	–	–	–	> 100 µM (inactive)	–	> 100 µM (inactive)	> 100 µM (inactive)	> 100 µM (inactive)	> 100 µM (inactive)	> 100 µM (inactive)	> 100 µM (inactive)	> 100 µM (inactive)	> 100 µM (inactive)	–
C=C1C(=O)C[C@@]23CCC[C@@]12CC(OCOC)C3 (stereo partly drawn)	1.62 µM (inactive)	–	1.36	1.85 µM (inactive)	1.61 µM (inactive)	–	1.83 µM (inactive)	–	–	2.74 µM (inactive)	2.11 µM (inactive)	4.56 µM (inactive)	–	1.84 µM (inactive)	1.91 µM (inactive)	–	3.59 µM (inactive)	4.8 µM (inactive)	3.12 µM (inactive)	3.6 µM (inactive)
CN(O)C(=O)CCCC(=O)NCC(C)(C)CNC(=O)CCCC(=O)N(C)O	> 100 µM (inactive)	> 100 µM (inactive)	> 100	> 100 µM (inactive)	> 100 µM (inactive)	> 100 µM (inactive)	> 100 µM (inactive)	> 100 µM (inactive)	> 100 µM (inactive)	> 100 µM (inactive)	> 100 µM (inactive)	> 100 µM (inactive)	> 100 µM (inactive)	–	–	–	–	–	–	–
NC(=O)c1ncn2c1NC(=O)CC2	> 100 µM (inactive)	–	> 100	> 100 µM (inactive)	> 100 µM (inactive)	–	> 100 µM (inactive)	–	–	> 100 µM (inactive)	> 100 µM (inactive)	> 100 µM (inactive)	–	> 100 µM (inactive)	> 100 µM (inactive)	–	> 100 µM (inactive)	> 45.3 µM (inactive)	> 100 µM (inactive)	> 100 µM (inactive)
O=P(CCOc1ccccc1OCCP(=O)(c1ccccc1)c1ccc2c(c1)OCCOCCOCCOCCO2)(c1ccccc1)c1ccc2c(c1)OCCOCCOCCOCCO2 (stereo not drawn)	> 100 µM (inactive)	–	> 100	> 100 µM (inactive)	> 100 µM (inactive)	> 100 µM (inactive)	–	–	–	> 100 µM (inactive)	–	> 100 µM (inactive)	> 100 µM (inactive)	> 100 µM (inactive)	> 100 µM (inactive)	> 100 µM (inactive)	> 100 µM (inactive)	> 100 µM (inactive)	> 100 µM (inactive)	–
Cc1nc2cccc(F)c2c(=O)n1C1CCCCNC1=O (stereo not drawn)	> 10 µM (inactive)	> 10 µM (inactive)	> 10	> 10 µM (inactive)	> 10 µM (inactive)	> 10 µM (inactive)	> 10 µM (inactive)	> 10 µM (inactive)	> 10 µM (inactive)	> 10 µM (inactive)	> 10 µM (inactive)	> 10 µM (inactive)	> 10 µM (inactive)	–	–	–	–	–	–	–
C=C1CC(OC)(C(O)C(=O)N[C@H]2OCO[C@H]3C2O[C@H](C[C@@H](COC)OC)C(C)(C)C3OC)O[C@H](C)[C@@H]1C (stereo partly drawn)	< 0.00482 µM (active)	–	< 0.00482	< 0.00482 µM (active)	< 0.00482 µM (active)	–	< 0.00482 µM (active)	–	–	< 0.00482 µM (active)	< 0.00482 µM (active)	< 0.00482 µM (active)	–	< 0.00482 µM (active)	< 0.00482 µM (active)	–	< 0.00482 µM (active)	< 0.00482 µM (active)	< 0.00482 µM (active)	< 0.00482 µM (active)
COc1ccc(C2CC(c3sc(Nc4ccc(C)cc4)nc3C)=NN2)cc1 (stereo not drawn)	11.1 µM (inactive)	–	15.1	> 40.8 µM (inactive)	18.2 µM (inactive)	–	14 µM (inactive)	–	–	14.9 µM (inactive)	17.4 µM (inactive)	15.8 µM (inactive)	–	14 µM (inactive)	14.1 µM (inactive)	–	> 44.1 µM (inactive)	22.1 µM (inactive)	21 µM (inactive)	15.3 µM (inactive)
NC(=O)c1csc(C2O[C@@H](COP(=O)(O)OP(=O)(O)OC[C@H]3OC(n4cnc5c(N)ncnc54)[C@H](O)[C@@H]3O)[C@H](O)[C@@H]2O)n1 (stereo partly drawn)	> 100 µM (inactive)	–	> 100	> 100 µM (inactive)	54.5 µM (inactive)	37.8 µM (inactive)	–	–	–	39.6 µM (inactive)	–	64 µM (inactive)	–	45.2 µM (inactive)	> 100 µM (inactive)	> 100 µM (inactive)	–	> 100 µM (inactive)	33.2 µM (inactive)	> 100 µM (inactive)
CON(C)C(=O)C(Cc1ccccc1)NC(=O)OCc1ccccc1 (stereo not drawn)	> 100 µM (inactive)	–	> 100	> 100 µM (inactive)	–	> 100 µM (inactive)	–	–	–	> 100 µM (inactive)	–	> 100 µM (inactive)	> 100 µM (inactive)	> 100 µM (inactive)	58.9 µM (inactive)	> 100 µM (inactive)	> 100 µM (inactive)	> 100 µM (inactive)	64.3 µM (inactive)	–
NC(=S)N/N=C1\CC(c2ccccc2)Nc2ccccc21 (stereo not drawn)	29.6 µM (inactive)	–	28.6	42.7 µM (inactive)	34.2 µM (inactive)	42.1 µM (inactive)	–	–	–	32.7 µM (inactive)	–	40.1 µM (inactive)	–	35.2 µM (inactive)	23.4 µM (inactive)	33.8 µM (inactive)	39.4 µM (inactive)	68.9 µM (inactive)	6.76 µM (inactive)	54.6 µM (inactive)
COc1ccc(C2=NN(c3nsc4ccccc34)C(=O)CC2)cc1	82.6 µM (inactive)	–	57.9	70.1 µM (inactive)	89.1 µM (inactive)	> 100 µM (inactive)	–	–	–	62.7 µM (inactive)	–	> 100 µM (inactive)	49 µM (inactive)	–	58.5 µM (inactive)	75 µM (inactive)	> 100 µM (inactive)	> 100 µM (inactive)	–	12.6 µM (inactive)
CCOP(=Nc1ccc(N(C)C)cc1)(OCC)OCC	–	> 100 µM (inactive)	> 100	> 100 µM (inactive)	–	> 100 µM (inactive)	> 100 µM (inactive)	> 100 µM (inactive)	> 100 µM (inactive)	> 100 µM (inactive)	> 100 µM (inactive)	> 100 µM (inactive)	–	–	–	–	–	–	–	–
C=CCn1c(=O)ccn(COCCO)c1=O	> 100 µM (inactive)	> 100 µM (inactive)	–	> 100 µM (inactive)	> 100 µM (inactive)	> 100 µM (inactive)	> 100 µM (inactive)	> 100 µM (inactive)	> 100 µM (inactive)	> 100 µM (inactive)	> 100 µM (inactive)	> 100 µM (inactive)	> 100 µM (inactive)	–	–	–	–	–	–	–
CC(=O)O[C@@H]1C2=C(C3=C([O-])C4=CC=CC(=O)C4C(=O)C3=C2[N+]#N)[C@H](OC(C)=O)[C@@H](OC(C)=O)[C@]1(C)O (stereo partly drawn)	0.0323 µM (active)	0.383 µM (active)	0.119	0.347 µM (active)	0.124 µM (active)	0.177 µM (active)	0.392 µM (active)	0.286 µM (active)	0.644 µM (active)	0.693 µM (active)	0.128 µM (active)	0.302 µM (active)	0.101 µM (active)	–	–	–	–	–	–	–
O=NN(CCCl)C(=O)N[C@H]1CC[C@H](C(=O)O)CC1	36.3 µM (inactive)	–	> 100	> 100 µM (inactive)	> 72.6 µM (inactive)	–	> 100 µM (inactive)	–	–	44.6 µM (inactive)	> 100 µM (inactive)	29.7 µM (inactive)	–	> 100 µM (inactive)	22.8 µM (inactive)	–	> 100 µM (inactive)	> 100 µM (inactive)	> 100 µM (inactive)	> 100 µM (inactive)
